Values of other authors, collected in patent publication US20050042177A1, “Novel compositions of sildenafil free base” (Elan Pharma International Ltd., priority 2003, published 2005).

Legend:
PDE6 = details: PDE5 versus PDE6
[1] = 100 mg oral dose, healthy adult males

Compound	potency for PDE5 as compared to PDE6 (PDE6)	Tmax [1]	mean Cmax [1]	t1/2 [1]	absolute bioavailability (in vivo)
CCCc1nn(C)c2c(=O)[nH]c(-c3cc(S(=O)(=O)N4CCN(C)CC4)ccc3OCC)nc12 [Sildenafil, 1-[[3-(6,7-dihydro-1-methyl-7-oxo-3-propyl-1H-pyrazolo[4,3-d]pyrimidin-5-yl)-4-ethoxyphenyl]sulfonyl]-4-methylpiperazine]	approximately 10 fold	–	–	–	–
CCCc1nn(C)c2c(=O)[nH]c(-c3cc(S(=O)(=O)N4CCN(C)CC4)ccc3OCC)nc12.O=C(O)CC(O)(CC(=O)O)C(=O)O [Sildenafil citrate, 1-[[3-(6,7-dihydro-1-methyl-7-oxo-3-propyl-1H-pyrazolo[4,3-d]pyrimidin-5-yl)-4-ethoxyphenyl]sulfonyl]-4 methylpiperazine citrate]	–	1 h	440 ng/mL	about 4 hours	40%
